Patent US8765747B2, “Fused 2-aminothiazole compounds” (Dana-Farber Cancer Institute, Inc., priority 2009, dated 2014)

Columns and labels:
LOK = LOK (Homo sapiens (Human), UniProt O94804); experiment: KINOMEscan competition binding assay
Method: (§1) KINOMEscan™ (Ambit Biosciences, San Diego, Calif.), a high-throughput method for screening small molecular agents against a large panel of human kinases, was utilized for compound 2.
(§2) Kinases where significant binding affinity was detected at 10 μM were retested in dose-response format to determine a dissociation constant. The size of the red circle is proportion to Kd. […] The compound binds in the “DFG-out” conformation as evident by the position of F405. Ample space is available adjacent to the gatekeeper residue T338 providing a rationale for the tolerance for a larger amino acid at this position.

BRAF = BRAF (Homo sapiens (Human), UniProt P15056); experiment: KINOMEscan competition binding assay
Method: as §1, §2

ABL1(T315I) = ABL1(T315I) (Homo sapiens (Human), UniProt P00519, T315I); experiment: KINOMEscan competition binding assay
Method: as §1, §2

p38-gamma = p38-gamma (Homo sapiens (Human), UniProt P53778); experiment: KINOMEscan competition binding assay
Method: as §1, §2

FLT3 = FLT3 (Homo sapiens (Human), UniProt P36888); experiment: KINOMEscan competition binding assay
Method: as §1, §2

TIE2 = TIE2 (Homo sapiens (Human), UniProt Q02763); experiment: KINOMEscan competition binding assay
Method: as §1, §2

CDK3 = CDK3 (Homo sapiens (Human), UniProt Q00526); experiment: KINOMEscan competition binding assay
Method: as §1, §2

ABL1 = ABL1 (Homo sapiens (Human), UniProt P00519); experiment: KINOMEscan competition binding assay
Method: as §1, §2

HIPK1 = HIPK1 (Homo sapiens (Human), UniProt Q86Z02); experiment: KINOMEscan competition binding assay
Method: as §1, §2

FLT1 = FLT1 (Homo sapiens (Human), UniProt P17948); experiment: KINOMEscan competition binding assay
Method: as §1, §2

PDGFRB = PDGFRB (Homo sapiens (Human), UniProt P09619); experiment: KINOMEscan competition binding assay
Method: as §1, §2

CDK2 = CDK2 (Homo sapiens (Human), UniProt P24941); experiment: KINOMEscan competition binding assay
Method: as §1, §2

VEGFR2 = VEGFR2 (Homo sapiens (Human), UniProt P35968); experiment: KINOMEscan competition binding assay
Method: as §1, §2

FLT4 = FLT4 (Homo sapiens (Human), UniProt P35916); experiment: KINOMEscan competition binding assay
Method: as §1, §2

DDR1 = DDR1 (Homo sapiens (Human), UniProt Q08345); experiment: KINOMEscan competition binding assay
Method: as §1, §2

RET = RET (Homo sapiens (Human), UniProt P07949); experiment: KINOMEscan competition binding assay
Method: as §1, §2

CDK5 = CDK5 (Homo sapiens (Human), UniProt Q00535); experiment: KINOMEscan competition binding assay
Method: as §1, §2

PDGFRA = PDGFRA (Homo sapiens (Human), UniProt P16234); experiment: KINOMEscan competition binding assay
Method: as §1, §2

CDK7 = CDK7 (Homo sapiens (Human), UniProt P50613); experiment: KINOMEscan competition binding assay
Method: as §1, §2

KIT = KIT (Homo sapiens (Human), UniProt P10721); experiment: KINOMEscan competition binding assay
Method: as §1, §2

Ba/F3-insAY + T6701 = experiment: Relative IC50 in kit-expressing cell line; type: cell-based, murine; conditions: Mus musculus, 2.5-3 days, read-out: Relative IC50 range
Method: (§3) All compounds were initially dissolved in DMSO to make 10 mM stock solutions, and then were serially diluted to obtain final concentrations for in vitro experiments.
(§4) All cell lines were cultured with 5% CO2 at 37° C. in RPMI (Mediatech, Inc., Herndon, Va.) with 10% fetal calf serum (FCS) and supplemented with 1% L-glutamine. Parental Ba/F3 cells were similarly cultured with 15% WEHI-conditioned medium as a source of IL-3. Transfected cell lines were cultured in media supplemented with 1 mg/ml G418.

Ba/F3-delWK = experiment: Relative IC50 in kit-expressing cell line; type: cell-based, murine; conditions: Mus musculus, 2.5-3 days, read-out: Relative IC50 range
Method: as §3, §4

Ba/F3-delWK + T6701 = experiment: Relative IC50 in kit-expressing cell line; type: cell-based, murine; conditions: Mus musculus, 2.5-3 days, read-out: Relative IC50 range
Method: as §3, §4

Ba/F3-insAY + V654A = experiment: Relative IC50 in kit-expressing cell line; type: cell-based, murine; conditions: Mus musculus, 2.5-3 days, read-out: Relative IC50 range
Method: as §3, §4

Ba/F3-delWK + Y823D = experiment: Relative IC50 in kit-expressing cell line; type: cell-based, murine; conditions: Mus musculus, 2.5-3 days, read-out: Relative IC50 range
Method: as §3, §4

Ba/F3-delWK + V654A = experiment: Relative IC50 in kit-expressing cell line; type: cell-based, murine; conditions: Mus musculus, 2.5-3 days, read-out: Relative IC50 range
Method: as §3, §4

Ba/F3-T6701 = experiment: Relative IC50 in kit-expressing cell line; type: cell-based, murine; conditions: Mus musculus, 2.5-3 days, read-out: Relative IC50 range
Method: as §3, §4

Ba/F3-V6559D = experiment: Relative IC50 in kit-expressing cell line; type: cell-based, murine; conditions: Mus musculus, 2.5-3 days, read-out: Relative IC50 range
Method: as §3, §4

Ba/F3-insAY = experiment: Relative IC50 in kit-expressing cell line; type: cell-based, murine; conditions: Mus musculus, 2.5-3 days, read-out: Relative IC50 range
Method: as §3, §4

Ba/F3-Y253C = experiment: Relative IC50 in BCR-Abl-expressing cell line; type: cell-based, murine; conditions: Mus musculus, 2.5-3 days, read-out: Relative IC50 range
Method: as §3
Ba/F3.p210 cells were obtained by transfecting the IL-3-dependent marine hematopoietic Ba/F3 cell line with a pGD vector containing p210BCR-ABL (B2A2) cDNA (Daley and Baltimore, 1988; Sattler et al., 1996; Okuda et al., 1996). Murine hematopoietic 32D cells were transduced with retrovirus to express p210 Bcr-ABL (32D.p210 cells) (Matulonis et al., 1993); the 32D-T315I cell line was transfected by electroporation with the imatinib resistant BCR-ABL construct (pCI-neo Mammalian Expression Vector; Promega (#E1841) harboring the point mutation T315I (Weisberg et al., 2005). Ba/F3 cells were stably transfected by electroporation with imatinib-resistant BCR-ABL constructs (pCI-neo Mammalian Expression Vector; Promega (#E1841) harboring the point mutations T315I, F317L, F486S, and M351T; transfectants were selected for neomycin resistance and IL-3-independent growth (Weisberg et al., 2005). Ba/F3 cells were stably transfected by electroporation with BCR-ABL point mutants identified in a random mutagenesis screen for BCR-ABL point mutants conferring resistance to nilotinib: Q252H, E292K, Y253C, Y253H, E255K, and V289L (Ray et al., 2007). […]

32D-BCR-Abl-T3151 [1] = experiment: Apoptosis assay; type: cell-based, murine; set-up: unit not given here; conditions: approximately 3 days of treatment
From the text: (§5) Ba/F3.p210 cells were obtained by transfecting the IL-3-dependent marine hematopoietic Ba/F3 cell line with a pGD vector containing p210BCR-ABL (B2A2) cDNA (Daley and Baltimore, 1988; Sattler et al., 1996; Okuda et al., 1996). Murine hematopoietic 32D cells were transduced with retrovirus to express p210 Bcr-ABL (32D.p210 cells) (Matulonis et al., 1993); the 32D-T315I cell line was transfected by electroporation with the imatinib resistant BCR-ABL construct (pCI-neo Mammalian Expression Vector; Promega (#E1841) harboring the point mutation T315I (Weisberg et al., 2005). Ba/F3 cells were stably transfected by electroporation with imatinib-resistant BCR-ABL constructs (pCI-neo Mammalian Expression Vector; Promega (#E1841) harboring the point mutations T315I, F317L, F486S, and M351T; transfectants were selected for neomycin resistance and IL-3-independent growth (Weisberg et al., 2005). Ba/F3 cells were stably transfected by electroporation with BCR-ABL point mutants identified in a random mutagenesis screen for BCR-ABL point mutants conferring resistance to nilotinib: Q252H, E292K, Y253C, Y253H, E255K, and V289L (Ray et al., 2007). Ba/F3 cells were made to express Tel-PDGFRβ as described by Golub et al., 1994, and Carroll et al., 1996. Constructs of D842V-PDGFRα and V561D-PDGFRα cDNA cloned into pcDNA3.1 were stably transfected into Ba/F3 cells by electroporation, and cells were selected for neomycin resistance and IL3-independent growth as described by Weisberg et al., 2006.
as §4
(§6) Cell cycle analysis was performed using approximately 500,000 cells, which were centrifuged at 1500 rpm for 5 min, washed in PBS, and the pellet re-suspended in 500 μl of propidium iodide solution (50 μg/ml propidium iodide, 0.1% NP-40, 0.1% sodium citrate). The mixture was stored in the dark at 4° C. for a minimum of 15 min, and then analyzed by flow cytometry. Apoptosis of drug-treated cells was measured using the Annexin-V-Fluos Staining Kit (Boehringer Mannheim, Indianapolis).
(§7) Cells cultured in the presence or absence of drug were washed 1× with phosphate-buffered saline (PBS) and centrifuged for 5 min at 1500 rpm. Washed cell pellets were re-suspended in 100 μl of 20% Annexin-V-fluorescein labeling reagent and 20% propidium iodide (PI) in HEPES buffer. Cells were incubated for 15 min at room temperature, followed by dilution with 0.8 ml of HEPES buffer. Samples were then analyzed by flow cytometry. As controls, cells were incubated for 15 min with PI alone, Annexin-V-fluorescein labeling reagent alone, or HEPES buffer, and then diluted with HEPES buffer and analyzed by flow cytometry.

32D-BCR-Abl [2] = experiment: Apoptosis assay; type: cell-based, murine; set-up: unit not given here; conditions: approximately 3 days of treatment
From the text: as §5, §4, §6, §7

Ba/F3-PDGFRβ-T681I = experiment: Relative IC50 in PDGFR-expressing cell line; type: cell-based, murine; conditions: Mus musculus, 2.5-3 days, read-out: Relative IC50 range
Method: as §3, §4

32D-BCR-Abl-T3151 [3] = experiment: Cell cycle analysis; type: cell-based, murine; conditions: 24 hours of treatment
From the text: as §5, §4, §6

32D-BCR-Abl [4] = experiment: Cell cycle analysis; type: cell-based, murine; conditions: 24 hours of treatment
From the text: as §5, §4, §6

HIPK1, sequence (Q86Z02 whole entry): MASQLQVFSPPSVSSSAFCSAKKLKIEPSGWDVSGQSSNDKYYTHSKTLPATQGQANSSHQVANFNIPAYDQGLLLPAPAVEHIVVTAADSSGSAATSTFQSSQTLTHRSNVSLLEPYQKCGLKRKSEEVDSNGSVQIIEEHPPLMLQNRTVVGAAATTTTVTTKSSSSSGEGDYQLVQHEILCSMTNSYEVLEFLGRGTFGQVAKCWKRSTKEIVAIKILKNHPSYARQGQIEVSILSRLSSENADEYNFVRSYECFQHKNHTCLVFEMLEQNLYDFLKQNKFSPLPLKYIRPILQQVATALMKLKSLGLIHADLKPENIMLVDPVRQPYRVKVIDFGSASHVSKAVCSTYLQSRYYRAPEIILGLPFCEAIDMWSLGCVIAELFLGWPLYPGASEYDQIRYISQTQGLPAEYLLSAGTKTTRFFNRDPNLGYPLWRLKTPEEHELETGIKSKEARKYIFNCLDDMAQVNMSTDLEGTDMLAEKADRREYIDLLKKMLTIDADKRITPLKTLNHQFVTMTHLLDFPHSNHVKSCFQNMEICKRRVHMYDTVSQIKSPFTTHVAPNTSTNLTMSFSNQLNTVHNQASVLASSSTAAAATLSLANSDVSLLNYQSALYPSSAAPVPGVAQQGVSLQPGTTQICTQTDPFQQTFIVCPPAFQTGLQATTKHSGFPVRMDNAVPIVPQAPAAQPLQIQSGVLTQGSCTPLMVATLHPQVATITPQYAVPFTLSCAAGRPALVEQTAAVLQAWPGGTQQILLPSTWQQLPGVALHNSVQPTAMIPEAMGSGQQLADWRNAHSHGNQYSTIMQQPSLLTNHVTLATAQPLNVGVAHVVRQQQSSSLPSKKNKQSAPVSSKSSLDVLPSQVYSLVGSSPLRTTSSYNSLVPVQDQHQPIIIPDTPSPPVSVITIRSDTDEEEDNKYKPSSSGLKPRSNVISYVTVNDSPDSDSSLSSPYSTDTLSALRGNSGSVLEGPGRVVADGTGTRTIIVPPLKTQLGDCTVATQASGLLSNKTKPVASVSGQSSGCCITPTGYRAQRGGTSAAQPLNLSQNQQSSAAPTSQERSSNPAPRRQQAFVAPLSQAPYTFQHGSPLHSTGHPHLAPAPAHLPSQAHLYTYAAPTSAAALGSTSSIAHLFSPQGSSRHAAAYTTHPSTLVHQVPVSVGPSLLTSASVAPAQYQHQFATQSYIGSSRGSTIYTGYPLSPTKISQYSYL
LOK, sequence (O94804 whole entry): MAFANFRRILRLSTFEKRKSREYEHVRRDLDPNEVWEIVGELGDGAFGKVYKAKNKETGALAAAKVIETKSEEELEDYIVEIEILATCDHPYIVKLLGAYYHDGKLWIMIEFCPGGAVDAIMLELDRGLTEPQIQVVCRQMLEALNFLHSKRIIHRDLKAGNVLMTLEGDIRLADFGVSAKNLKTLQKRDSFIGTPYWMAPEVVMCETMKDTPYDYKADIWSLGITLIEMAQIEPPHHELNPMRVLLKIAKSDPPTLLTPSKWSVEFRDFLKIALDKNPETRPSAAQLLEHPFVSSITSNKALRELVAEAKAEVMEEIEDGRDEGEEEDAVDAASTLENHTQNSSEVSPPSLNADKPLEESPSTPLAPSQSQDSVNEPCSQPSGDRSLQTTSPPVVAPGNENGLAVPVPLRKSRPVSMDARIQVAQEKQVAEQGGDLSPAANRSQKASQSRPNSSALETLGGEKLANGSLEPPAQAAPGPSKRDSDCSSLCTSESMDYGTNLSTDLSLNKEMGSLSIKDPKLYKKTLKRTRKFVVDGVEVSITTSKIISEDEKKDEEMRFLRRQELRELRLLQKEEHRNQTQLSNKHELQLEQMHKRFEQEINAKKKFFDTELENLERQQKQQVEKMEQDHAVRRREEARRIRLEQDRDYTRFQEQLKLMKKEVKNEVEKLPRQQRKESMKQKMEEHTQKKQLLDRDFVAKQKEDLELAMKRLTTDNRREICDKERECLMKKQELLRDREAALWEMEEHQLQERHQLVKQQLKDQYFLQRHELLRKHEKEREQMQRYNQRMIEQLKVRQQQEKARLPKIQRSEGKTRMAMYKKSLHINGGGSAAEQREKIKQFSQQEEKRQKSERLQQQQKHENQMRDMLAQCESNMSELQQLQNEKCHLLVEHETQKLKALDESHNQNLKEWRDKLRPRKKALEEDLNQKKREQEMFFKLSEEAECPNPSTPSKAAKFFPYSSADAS
CDK5, sequence (Q00535 whole entry): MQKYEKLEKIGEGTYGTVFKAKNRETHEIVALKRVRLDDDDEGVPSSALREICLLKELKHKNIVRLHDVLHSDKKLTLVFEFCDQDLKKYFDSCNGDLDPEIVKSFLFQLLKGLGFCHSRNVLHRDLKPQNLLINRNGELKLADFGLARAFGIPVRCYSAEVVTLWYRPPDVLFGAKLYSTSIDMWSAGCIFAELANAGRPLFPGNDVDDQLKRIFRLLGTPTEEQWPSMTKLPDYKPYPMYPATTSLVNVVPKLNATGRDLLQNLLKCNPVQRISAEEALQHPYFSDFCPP
BRAF, sequence (P15056 whole entry): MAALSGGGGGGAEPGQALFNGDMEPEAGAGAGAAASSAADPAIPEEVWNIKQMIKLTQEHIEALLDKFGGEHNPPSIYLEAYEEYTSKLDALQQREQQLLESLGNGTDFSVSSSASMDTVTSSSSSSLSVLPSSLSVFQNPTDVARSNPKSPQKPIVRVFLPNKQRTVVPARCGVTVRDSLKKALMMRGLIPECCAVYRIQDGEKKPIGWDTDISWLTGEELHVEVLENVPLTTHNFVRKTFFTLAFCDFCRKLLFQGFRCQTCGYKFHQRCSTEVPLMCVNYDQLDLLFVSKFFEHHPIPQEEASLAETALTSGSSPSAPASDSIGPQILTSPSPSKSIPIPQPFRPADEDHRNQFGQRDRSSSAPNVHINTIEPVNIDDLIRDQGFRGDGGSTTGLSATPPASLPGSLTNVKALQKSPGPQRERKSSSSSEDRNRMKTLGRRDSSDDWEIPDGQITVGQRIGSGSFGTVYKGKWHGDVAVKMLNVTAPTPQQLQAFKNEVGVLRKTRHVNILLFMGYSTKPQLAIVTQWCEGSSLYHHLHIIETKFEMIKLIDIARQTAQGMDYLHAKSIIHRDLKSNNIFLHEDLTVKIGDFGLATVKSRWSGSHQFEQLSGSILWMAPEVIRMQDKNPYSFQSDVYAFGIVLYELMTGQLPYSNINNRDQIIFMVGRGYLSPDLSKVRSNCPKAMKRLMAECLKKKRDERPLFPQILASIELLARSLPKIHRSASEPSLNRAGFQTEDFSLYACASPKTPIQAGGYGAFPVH
TIE2, sequence (Q02763 23-1124): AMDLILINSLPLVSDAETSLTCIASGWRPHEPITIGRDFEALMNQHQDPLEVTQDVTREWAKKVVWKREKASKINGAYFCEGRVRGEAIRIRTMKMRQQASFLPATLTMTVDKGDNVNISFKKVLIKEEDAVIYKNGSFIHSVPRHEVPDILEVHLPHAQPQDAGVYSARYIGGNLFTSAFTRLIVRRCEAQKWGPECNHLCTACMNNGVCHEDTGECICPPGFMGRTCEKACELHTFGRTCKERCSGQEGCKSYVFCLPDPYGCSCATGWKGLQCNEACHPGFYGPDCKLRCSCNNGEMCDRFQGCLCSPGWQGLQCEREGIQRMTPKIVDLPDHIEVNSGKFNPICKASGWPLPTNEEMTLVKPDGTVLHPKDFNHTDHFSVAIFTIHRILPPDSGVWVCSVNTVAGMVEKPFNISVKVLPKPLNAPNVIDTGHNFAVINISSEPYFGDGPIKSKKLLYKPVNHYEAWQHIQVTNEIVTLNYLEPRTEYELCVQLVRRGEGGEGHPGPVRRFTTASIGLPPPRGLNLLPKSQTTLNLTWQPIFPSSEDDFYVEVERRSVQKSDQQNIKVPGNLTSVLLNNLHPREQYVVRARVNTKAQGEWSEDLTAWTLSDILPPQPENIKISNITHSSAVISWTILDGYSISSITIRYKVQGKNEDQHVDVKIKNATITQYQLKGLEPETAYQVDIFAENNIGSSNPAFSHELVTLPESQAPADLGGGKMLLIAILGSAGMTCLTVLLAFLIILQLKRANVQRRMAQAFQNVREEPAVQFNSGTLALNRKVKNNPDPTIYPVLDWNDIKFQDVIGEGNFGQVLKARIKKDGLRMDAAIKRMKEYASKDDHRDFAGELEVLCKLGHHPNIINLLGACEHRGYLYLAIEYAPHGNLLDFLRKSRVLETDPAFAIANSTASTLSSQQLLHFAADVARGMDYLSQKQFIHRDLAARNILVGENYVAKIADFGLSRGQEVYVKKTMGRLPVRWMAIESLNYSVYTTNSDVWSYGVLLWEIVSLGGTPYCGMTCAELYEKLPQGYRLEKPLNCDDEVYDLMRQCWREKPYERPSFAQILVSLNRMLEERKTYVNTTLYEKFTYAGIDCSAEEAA
CDK3, sequence (Q00526 whole entry): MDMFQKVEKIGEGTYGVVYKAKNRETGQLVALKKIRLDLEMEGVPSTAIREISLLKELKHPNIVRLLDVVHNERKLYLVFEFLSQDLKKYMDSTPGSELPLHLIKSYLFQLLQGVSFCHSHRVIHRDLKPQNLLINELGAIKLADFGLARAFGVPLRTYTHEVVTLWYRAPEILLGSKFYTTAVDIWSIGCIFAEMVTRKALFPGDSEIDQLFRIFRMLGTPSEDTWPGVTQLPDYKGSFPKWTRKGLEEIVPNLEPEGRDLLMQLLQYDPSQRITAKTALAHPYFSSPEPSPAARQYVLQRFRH
p38-gamma, sequence (P53778 whole entry): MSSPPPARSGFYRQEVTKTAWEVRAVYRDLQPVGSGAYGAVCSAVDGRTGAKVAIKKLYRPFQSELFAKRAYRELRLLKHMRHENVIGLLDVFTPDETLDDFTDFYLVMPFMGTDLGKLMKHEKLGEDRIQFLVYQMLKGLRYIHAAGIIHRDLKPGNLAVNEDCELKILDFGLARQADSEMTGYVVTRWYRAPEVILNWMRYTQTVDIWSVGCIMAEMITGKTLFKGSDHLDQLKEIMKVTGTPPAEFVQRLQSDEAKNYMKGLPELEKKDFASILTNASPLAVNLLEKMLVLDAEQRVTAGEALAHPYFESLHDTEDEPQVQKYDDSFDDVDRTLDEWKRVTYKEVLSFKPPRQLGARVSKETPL

CCN1CCN(Cc2ccc(NC(=O)c3cccc(-c4ccc5nc(NC(=O)C6CC6)sc5n4)c3)cc2C(F)(F)F)CC1 [Compound 2]
Kd (LOK): 0.0095 µM
Kd (BRAF): 0.036 µM
Kd (ABL1(T315I)): 0.0012 µM
Kd (p38-gamma): 0.1 µM
Kd (FLT3): 0.0023 µM
Kd (TIE2): 0.057 µM
Kd (CDK3): 0.25 µM
Kd (ABL1): 0.0033 µM
Kd (HIPK1): 0.034 µM
Kd (FLT1): 0.074 µM
Kd (PDGFRB): 0.0018 µM
Kd (CDK2): 0.84 µM
Kd (VEGFR2): 0.058 µM
Kd (FLT4): 0.031 µM
Kd (DDR1): 0.0034 µM
Kd (RET): 0.0056 µM
Kd (CDK5): 0.15 µM
Kd (PDGFRA): 0.0077 µM
Kd (CDK7): 0.013 µM
Kd (KIT): 0.0029 µM
IC50 (Ba/F3-insAY + T6701): ≥ 1 µM
IC50 (Ba/F3-delWK): 0.0125 to 0.025 µM
IC50 (Ba/F3-delWK + T6701): 0.025 to 0.05 µM
IC50 (Ba/F3-insAY + V654A): > 1 µM
IC50 (Ba/F3-delWK + Y823D): 0.5 to 1 µM
IC50 (Ba/F3-delWK + V654A): 0.025 to 0.05 µM
IC50 (Ba/F3-T6701): 0.25 µM
IC50 (Ba/F3-V6559D): 0.25 to 0.5 µM
IC50 (Ba/F3-insAY): > 1 µM
IC50 (Ba/F3-Y253C): < 0.1 µM
Apoptotic (32D-BCR-Abl-T3151 [1]; 0.01 μM): 9.0
Necrotic (32D-BCR-Abl-T3151 [1]; 0.01 μM): 0.1
Viable (32D-BCR-Abl-T3151 [1]; 0.01 μM): 90.88
Apoptotic (32D-BCR-Abl-T3151 [1]; 0.1 μM): 9.8
Necrotic (32D-BCR-Abl-T3151 [1]; 0.1 μM): 0.3
Viable (32D-BCR-Abl-T3151 [1]; 0.1 μM): 89.9
Apoptotic (32D-BCR-Abl-T3151 [1]; 1.0 μM): 72.7
Necrotic (32D-BCR-Abl-T3151 [1]; 1.0 μM): 0
Viable (32D-BCR-Abl-T3151 [1]; 1.0 μM): 27.2
Apoptotic (32D-BCR-Abl [2]; 0.01 μM): 5.8
Necrotic (32D-BCR-Abl [2]; 0.01 μM): 0.2
Viable (32D-BCR-Abl [2]; 0.01 μM): 94
Apoptotic (32D-BCR-Abl [2]; 0.1 μM): 52.3
Necrotic (32D-BCR-Abl [2]; 0.1 μM): 0.6
Viable (32D-BCR-Abl [2]; 0.1 μM): 47.1
Apoptotic (32D-BCR-Abl [2]; 1.0 μM): 95.3
Necrotic (32D-BCR-Abl [2]; 1.0 μM): 0.1
Viable (32D-BCR-Abl [2]; 1.0 μM): 4.6
IC50 (Ba/F3-PDGFRβ-T681I): > 1 µM
% G0G1 (32D-BCR-Abl-T3151 [3]; 0.01 μM): 36.96%
% G2M (32D-BCR-Abl-T3151 [3]; 0.01 μM): 22.64%
% S (32D-BCR-Abl-T3151 [3]; 0.01 μM): 40.40%
% G0G1 (32D-BCR-Abl-T3151 [3]; 0.1 μM): 46.35%
% G2M (32D-BCR-Abl-T3151 [3]; 0.1 μM): 10.54%
% S (32D-BCR-Abl-T3151 [3]; 0.1 μM): 43.11%
% G0G1 (32D-BCR-Abl-T3151 [3]; 1.0 μM): 73.13%
% G2M (32D-BCR-Abl-T3151 [3]; 1.0 μM): 9.29%
% S (32D-BCR-Abl-T3151 [3]; 1.0 μM): 17.59%
% G0G1 (32D-BCR-Abl [4]; 0.01 μM): 42.62%
% G2M (32D-BCR-Abl [4]; 0.01 μM): 9.56%
% S (32D-BCR-Abl [4]; 0.01 μM): 47.82%
% G0G1 (32D-BCR-Abl [4]; 0.1 μM): 76.52%
